In ChEMBL document CHEMBL4118077, “Synthesis of thiazole linked indolyl-3-glyoxylamide derivatives as tubulin polymerization inhibitors” (Eur J Med Chem, 2017):

Key:
DU-145 = assay: Antiproliferative activity against human DU145 cells after 48 hrs by MTT assay; assay type: functional, cell-based; details: DU-145, 48 h
A549 = assay: Antiproliferative activity against human A549 cells after 48 hrs by MTT assay; assay type: functional, cell-based; details: A549, 48 h
PC-3 = assay: Antiproliferative activity against human PC3 cells after 48 hrs by MTT assay; assay type: functional, cell-based; details: PC-3, 48 h
HCT-15 = assay: Antiproliferative activity against human HCT15 cells after 48 hrs by MTT assay; assay type: functional, cell-based; details: HCT-15, 48 h
Sus scrofa = species on record: Sus scrofa; assay: Inhibition of porcine brain tubulin polymerization at 5 uM measured for 1 hr by fluorescence assay relative to control

Compound | IC50 (DU-145) | IC50 (A549) | IC50 (PC-3) | IC50 (HCT-15) | inhibition (Sus scrofa)
O=C(Cn1cc(C(=O)C(=O)Nc2ccccc2)c2cc(Br)ccc21)Nc1nccs1 | 25.5 µM | 43.7 µM | > 50 µM | > 50 µM | –
O=C(CCn1cc(C(=O)C(=O)N2CCCCC2)c2ccccc21)Nc1nccs1 | > 50 µM | > 50 µM | > 50 µM | > 50 µM | –
O=C(Cn1cc(C(=O)C(=O)NC2CC2)c2ccccc21)Nc1nccs1 | > 50 µM | > 50 µM | > 50 µM | – | –
O=C(Cn1cc(C(=O)C(=O)N2CCCCC2)c2ccccc21)Nc1nccs1 | > 50 µM | > 50 µM | > 50 µM | > 50 µM | –
O=C(CCn1cc(C(=O)C(=O)N2CCCCC2)c2ccccc21)Nc1nc(-c2ccccc2)cs1 | > 50 µM | > 50 µM | > 50 µM | > 50 µM | –
CCOC(=O)c1nc(NC(=O)CCn2cc(C(=O)C(=O)N3CCCCC3)c3ccccc32)sc1C | > 50 µM | > 50 µM | > 50 µM | > 50 µM | 12.2%
CCOC(=O)c1nc(NC(=O)Cn2cc(C(=O)C(=O)N3CCCCC3)c3ccccc32)sc1C | 3.21 µM | > 50 µM | 8.2 µM | – | –
CCOC(=O)c1nc(NC(=O)Cn2cc(C(=O)C(=O)NC3CC3)c3ccccc32)sc1C | 4.6 µM | 20.9 µM | 8.5 µM | 10.3 µM | 21.3%
COc1cc([C@@H]2c3cc4c(cc3[C@H](O)[C@H]3COC(=O)[C@H]23)OCO4)cc(OC)c1OC | – | – | – | – | 78%
O=C(Cn1cc(C(=O)C(=O)N2CCCCC2)c2ccccc21)Nc1nc(-c2ccccc2)cs1 | 25.4 µM | > 50 µM | > 50 µM | > 50 µM | –
